Test results published in ChEMBL document CHEMBL3351598, “Strategies for the modulation of phase II metabolism in a series of PKCε inhibitors” (Bioorg Med Chem Lett, 2014).

Assay: AUC in beagle dog at 10 mg/kg, iv bolus dose
Format: ADME, organism-based, Canis lupus familiaris
Design: dose 10 mg/kg, route intravenous
Conditions: plasma

Structure (SMILES) | AUC [ng·h/mL]
N#CC1(c2cc(CCO)cc(-c3ccnc4[nH]nc(C(F)(F)F)c34)c2)CC1 | 130
N#CC1(c2cc(C[C@@H](O)CO)cc(-c3ccnc4[nH]nc(C(F)(F)F)c34)c2)CC1 | 4400
